Measurements reported in US20090088380A1, “GHRH ANALOGS AND THERAPEUTIC USES THEREOF” (priority 2007, published 2009).
Non-standard residues stand in square brackets, D forms with d. Residues, ends and D or L forms follow the SMILES beside them.

How the values were obtained:
[1] = tested on: malnourished subjects with CKD; experiment: Phase II CKD: abnormal and clinically significant haematology values; format: in vivo, human; conditions: for Subjects with abnormal and clinically significant Basophils (%) / Subjects with abnormal and clinically significant Eosinophils (%) / Subjects with abnormal and clinically significant Haematocrit (%) / Subjects with abnormal and clinically significant Haemoglobin (%) / Subjects with abnormal and clinically significant Lymphocytes (%) / Subjects with abnormal and clinically significant MCV (%) / Subjects with abnormal and clinically significant Monocytes (%) / Subjects with abnormal and clinically significant Neutrophils (%) / Subjects with abnormal and clinically significant Platelet count (%) / Subjects with abnormal and clinically significant RBC (%) / Subjects with abnormal and clinically significant WBC (%): safety analysis set
From the text: The number of subjects with abnormal and clinically significant laboratory values at baseline and at Day 28 is presented in Table 35 (haematology) and Table 36 clinical chemistry. Overall, the number of subjects with abnormal and clinically significant laboratory values was similar in the GHRH(1-29)NH2 synthetic analog and placebo groups. No clear trends were observed.

[2] = tested on: IGF-1, IGFBP-1 and IGFBP-3; experiment: Phase II CKD: total IGF-1, IGFBP-1 and IGFBP-3; format: in vivo, human
Protocol: Total IGF-1 (ng/mL), insulin-like growth factor binding protein (IGFBP-1 and IGFBP-3, ng/mL) were measured at every visit from baseline to Day 28 as markers for tissue and cell growth and proliferation. Samples were analysed at the Department of Nephrology, Endocrinology and Metabolic Diseases, Silesian University School of Medicine, Katowice using a Medgenix Diagnostics kit.

Canine Growth Hormone = experiment: In vivo GH secretion in a male Beagle dog, escalating SC doses, RIA
From the text: In order to assess such use of the GHRH analogs, the following experiments were undertaken. […] The above GHRH analog is a variation of a synthetic acetate salt of an amidated synthetic 29-amino acid peptide that corresponds to the amino-terminal segment of the naturally-occurring human growth hormone—releasing hormone (GHRH) with four amino acid substitutions in positions 2, 10, 15, and 22.
Prior to administration, all dosing formulations were filtered using a 0.22 μm filter to ensure sterility. […] Dosing started at approximately the same time each day, commencing at 9:00 am ±30 minutes.
For pharmacodynamic investigations, blood samples (approximately 1.0 ml) were collected from the dog on each treatment day via a jugular venipuncture at the following time points: pre-dose, 7, 15, 22, 30, 45, and 60 minutes post dosing. All blood samples were collected into potassium EDTA tubes and centrifuged under refrigeration (2 to 8° C., 1500 g for 10 minutes).
Plasma GH was determined by Linco Diagnostic Services using their own kit. Linco's Porcine/Canine Growth Hormone radioimmunoassay kit (RIA) (PGH-46HK) has been developed to quantitate Growth Hormone in plasma, serum, and tissue culture media. It is a completely homologous assay since the antibody was raised against recombinant Porcine Growth Hormone and both the standard and tracer are prepared with recombinant Porcine Growth Hormone. Since the amino acid sequences of Porcine Growth Hormone and Canine Growth Hormone are identical, this assay developed for Porcine Growth Hormone measures Canine Growth Hormone levels with equal efficiency. All components are included (standards, antibody, tracer, quality controls, precipitating reagents and buffer) necessary to complete a RIA. The assay was conducted under the following conditions: overnight; equilibrium incubation at room temperature; sample volume: 100 μl serum, plasma, or cell culture media.

Structure (SMILES): CC[C@H](C)[C@H](NC(=O)[C@H](C)NC(=O)[C@H](CC(=O)O)NC(=O)[C@@H](C)NC(=O)[C@@H](N)Cc1ccc(O)cc1)C(=O)N[C@@H](Cc1ccccc1)C(=O)N[C@H](C(=O)N[C@@H](CC(N)=O)C(=O)N[C@@H](CO)C(=O)N[C@H](Cc1ccc(O)cc1)C(=O)N[C@@H](CCCNC(=N)N)C(=O)N[C@@H](CCCCN)C(=O)N[C@H](C(=O)N[C@@H](CC(C)C)C(=O)N[C@H](C)C(=O)N[C@@H](CCC(N)=O)C(=O)N[C@@H](CC(C)C)C(=O)N[C@@H](CO)C(=O)N[C@@H](C)C(=O)N[C@@H](CCCNC(=N)N)C(=O)N[C@@H](CCCCN)C(=O)N[C@@H](CCCCN)C(=O)N[C@@H](CC(C)C)C(=O)N[C@@H](CCC(N)=O)C(=O)N[C@@H](CC(=O)O)C(=O)N[C@H](C(=O)N[C@@H](CCSC)C(=O)N[C@@H](CO)C(=O)N[C@@H](CCCNC(=N)N)C(N)=O)[C@@H](C)CC)C(C)C)[C@@H](C)O [GHRH analog #5, [D-Ala^2, D-Tyr^10, D-Ala^15, Lys^22] hGHRH(1-29)-NH2] (H-Y[dA]DAIFTNS[dY]RKVL[dA]QLSARKKLQDIMSR-NH2)
- Subjects with abnormal and clinically significant Basophils (%) ([1]; Baseline): (0.0%)
- Subjects with abnormal and clinically significant Eosinophils (%) ([1]; Baseline): (0.0%)
- Subjects with abnormal and clinically significant Haematocrit (%) ([1]; Baseline): (7.7%)
- Subjects with abnormal and clinically significant Haemoglobin (%) ([1]; Baseline): (23.1%)
- Subjects with abnormal and clinically significant Lymphocytes (%) ([1]; Baseline): (0.0%)
- Subjects with abnormal and clinically significant MCV (%) ([1]; Baseline): (0.0%)
- Subjects with abnormal and clinically significant Monocytes (%) ([1]; Baseline): (7.7%)
- Subjects with abnormal and clinically significant Neutrophils (%) ([1]; Baseline): (7.7%)
- Subjects with abnormal and clinically significant Platelet count (%) ([1]; Baseline): (0.0%)
- Subjects with abnormal and clinically significant RBC (%) ([1]; Baseline): (7.7%)
- Subjects with abnormal and clinically significant WBC (%) ([1]; Baseline): (0.0%)
- Number of subjects with abnormal and clinically significant haematocrit ([1]; Day 28): 4 subjects
- Subjects with abnormal and clinically significant Basophils (%) ([1]; Day 28): (0.0%)
- Subjects with abnormal and clinically significant Eosinophils (%) ([1]; Day 28): (0.0%)
- Subjects with abnormal and clinically significant Haematocrit (%) ([1]; Day 28): (33.3%)
- Subjects with abnormal and clinically significant Haemoglobin (%) ([1]; Day 28): (41.7%)
- Subjects with abnormal and clinically significant Lymphocytes (%) ([1]; Day 28): (0.0%)
- Subjects with abnormal and clinically significant MCV (%) ([1]; Day 28): (0.0%)
- Subjects with abnormal and clinically significant Monocytes (%) ([1]; Day 28): (8.3%)
- Subjects with abnormal and clinically significant Neutrophils (%) ([1]; Day 28): (16.7%)
- Subjects with abnormal and clinically significant Platelet count (%) ([1]; Day 28): (0.0%)
- Subjects with abnormal and clinically significant RBC (%) ([1]; Day 28): (25.0%)
- Subjects with abnormal and clinically significant WBC (%) ([1]; Day 28): (0.0%)
- Number of subjects with abnormal and clinically significant haematocrit ([1]; baseline): 1 subject
- Mean decrease in IGFBP-1 concentration ([2]; 4-week treatment): 26.7%
- IGFBP-3: adjusted difference between treatments ([2]; ITT): 580.85 ng/mL
- IGFBP-1: mean (SD) ([2]; ITT, Baseline): 74.98 (39.13) ng/mL
- IGFBP-3: median ([2]; ITT, Baseline): 4039.6 (813.7) ng/mL
- Total IGF-1: median (95% CI) ([2]; ITT, Baseline): 335.8 (—) ng/mL
- Total IGF-1: median (95% CI) ([2]; ITT, Baseline, listed as GHRH(1-29)NH2 synthetic analog): 335.8 ng/mL
- Total IGF-1: median (95% CI) ([2]; ITT, Day 7): 576.0 (494.10; 828.70) ng/mL
- Total IGF-1: median (95% CI) ([2]; ITT, Day 14): 611.8 (490.40; 913.60) ng/mL
- Total IGF-1: median (95% CI) ([2]; ITT, Day 21): 729.8 (497.10; 913.50) ng/mL
- IGFBP-1: mean (SD) ([2]; ITT, Day 28): 54.94 (30.72) ng/mL
- IGFBP-3: median ([2]; ITT, Day 28): 5130.8 (961.0) ng/mL
- Total IGF-1: median (95% CI) ([2]; ITT, Day 28): 684.2 (564.10; 881.80) ng/mL
- Total IGF-1: median (95% CI) ([2]; ITT, Day 28, listed as GHRH(1-29)NH2 synthetic analog): 684.2 ng/mL
- IGFBP-1: adjusted difference between GHRH and placebo ([2]; ITT, listed as GHRH(1-29)NH2 synthetic analog): 28.40 ng/mL
- Median total IGF-1: increase ([2]; baseline to day 28): 104%
- Canine Growth Hormone (Canine Growth Hormone; 0.01 mg/kg BW SC, 0 min): 1.99 ng/mL
- Canine Growth Hormone (Canine Growth Hormone; 0.01 mg/kg BW SC, 7 min): 1.99 ng/mL
- Canine Growth Hormone (Canine Growth Hormone; 0.01 mg/kg BW SC, 15 min): 5 ng/mL
- Canine Growth Hormone (Canine Growth Hormone; 0.01 mg/kg BW SC, 22 min): 4 ng/mL
- Canine Growth Hormone (Canine Growth Hormone; 0.01 mg/kg BW SC, 30 min): 11 ng/mL
- Canine Growth Hormone (Canine Growth Hormone; 0.01 mg/kg BW SC, 45 min): 17 ng/mL
- Canine Growth Hormone (Canine Growth Hormone; 0.01 mg/kg BW SC, 60 min): 11 ng/mL
- Canine Growth Hormone (Canine Growth Hormone; 0.1 mg/kg BW SC, 0 min): 1.99 ng/mL
- Canine Growth Hormone (Canine Growth Hormone; 0.1 mg/kg BW SC, 7 min): 5 ng/mL
- Canine Growth Hormone (Canine Growth Hormone; 0.1 mg/kg BW SC, 15 min): 9 ng/mL
- Canine Growth Hormone (Canine Growth Hormone; 0.1 mg/kg BW SC, 22 min): 7 ng/mL
- Canine Growth Hormone (Canine Growth Hormone; 0.1 mg/kg BW SC, 30 min): 6 ng/mL
- Canine Growth Hormone (Canine Growth Hormone; 0.1 mg/kg BW SC, 45 min): 5 ng/mL
- Canine Growth Hormone (Canine Growth Hormone; 0.1 mg/kg BW SC, 60 min): 1.99 ng/mL
- Canine Growth Hormone (Canine Growth Hormone; 1 mg/kg BW SC, 0 min): 1.99 ng/mL
- Canine Growth Hormone (Canine Growth Hormone; 1 mg/kg BW SC, 7 min): 4 ng/mL
- Canine Growth Hormone (Canine Growth Hormone; 1 mg/kg BW SC, 15 min): 14 ng/mL
- Canine Growth Hormone (Canine Growth Hormone; 1 mg/kg BW SC, 22 min): 9 ng/mL
- Canine Growth Hormone (Canine Growth Hormone; 1 mg/kg BW SC, 30 min): 19 ng/mL
- Canine Growth Hormone (Canine Growth Hormone; 1 mg/kg BW SC, 45 min): 7 ng/mL
- Canine Growth Hormone (Canine Growth Hormone; 1 mg/kg BW SC, 60 min): 7 ng/mL
- Treatment-related clinical signs (Canine Growth Hormone; dog): No treatment-related clinical signs were observed
- GH response compared with natural hGHRH(1-44)NH2 (Canine Growth Hormone; dog, AUC not measured): significantly larger
- GH secretion into peripheral blood, dose dependence (Canine Growth Hormone; dog, subcutaneous): dose-dependent response
- Optimal sc dose (Canine Growth Hormone; dogs): 10 μg/kg body weight
